Results published in article PMC11237924, “A neutral invertase controls cell division besides hydrolysis of sucrose for nutrition during germination and seed setting in rice” (iScience, 2024).
Substitutions are numbered along the chain they refer to.

Columns and labels:
[1] = target: T1, OsNIN8 (MBP-OsNIN8), neutral invertase 8 (Oryza sativa, UniProt Q69T31, E501A); assay: ITC incremental titration; format: binding; details: 25 °C, 0.1 mM protein, 10 mM sucrose in syringe; catalytic-residue mutant
T1 construct: gene CINV1; N-terminal MBP fusion (pETMALc-H), tag kept, expressed in E. coli BL21(DE3), amylose resin purified
T1 sequence (Q69T31 1-562 E501A): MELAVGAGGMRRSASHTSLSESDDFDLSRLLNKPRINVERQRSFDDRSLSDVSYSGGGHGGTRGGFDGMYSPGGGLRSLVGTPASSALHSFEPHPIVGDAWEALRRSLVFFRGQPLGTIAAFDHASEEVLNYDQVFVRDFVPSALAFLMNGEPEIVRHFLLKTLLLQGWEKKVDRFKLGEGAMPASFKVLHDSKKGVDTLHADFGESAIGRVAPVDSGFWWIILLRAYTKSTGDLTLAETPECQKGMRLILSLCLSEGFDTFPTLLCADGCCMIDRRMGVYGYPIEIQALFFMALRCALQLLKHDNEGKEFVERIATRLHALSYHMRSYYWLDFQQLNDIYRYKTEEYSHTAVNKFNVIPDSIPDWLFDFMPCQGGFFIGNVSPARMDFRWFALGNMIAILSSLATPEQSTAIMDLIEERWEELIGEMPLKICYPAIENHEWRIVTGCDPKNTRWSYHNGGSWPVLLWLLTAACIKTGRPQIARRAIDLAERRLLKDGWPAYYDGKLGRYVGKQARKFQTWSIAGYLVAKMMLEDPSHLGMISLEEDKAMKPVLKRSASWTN

[2] = target: T2, OsNIN8 (MBP-OsNIN8), neutral invertase 8 (Oryza sativa, UniProt Q69T31, G461R); assay: pulldown on amylose magnetic beads with GC-TOF MS; ITC titration; format: binding; details: 50 mM potassium phosphate pH 6.4, 25 °C; OsNIN8m, retains residual sucrose hydrolysis
T2 construct: gene CINV1; N-terminal MBP fusion (pETMALc-H), tag kept, expressed in E. coli BL21(DE3), amylose resin purified
T2 sequence (Q69T31 1-562 G461R): T1 sequence (Q69T31 1-562 E501A) with G461R, A501E

[3] = target: T3, OsNIN8 (MBP-OsNIN8), neutral invertase 8 (Oryza sativa, UniProt Q69T31, D275A/E501A); assay: ITC incremental titration; format: binding; details: 25 °C, 0.1 mM protein, 10 mM sucrose in syringe; catalytic-residue mutant
T3 construct: gene CINV1; N-terminal MBP fusion (pETMALc-H), tag kept, expressed in E. coli BL21(DE3), amylose resin purified
T3 sequence (Q69T31 1-562 D275A/E501A): T1 sequence (Q69T31 1-562 E501A) with D275A

[4] = target: T4, OsNIN8 (MBP-OsNIN8), neutral invertase 8 (Oryza sativa, UniProt Q69T31, D275A); assay: ITC incremental titration; format: binding; details: 25 °C, 0.1 mM protein, 10 mM sucrose in syringe; catalytic-residue mutant
T4 construct: gene CINV1; N-terminal MBP fusion (pETMALc-H), tag kept, expressed in E. coli BL21(DE3), amylose resin purified
T4 sequence (Q69T31 1-562 D275A): T1 sequence (Q69T31 1-562 E501A) with D275A, A501E

purified protein = substrate: OC[C@H]1O[C@@](CO)(O[C@H]2O[C@H](CO)[C@@H](O)[C@H](O)[C@H]2O)[C@@H](O)[C@@H]1O; assay: purified protein; format: biochemical, Oryza sativa; details: 50 mM potassium phosphate pH 6.4, fit over 0-20 mM sucrose (substrate inhibition above 20 mM)

OC[C@H]1O[C@@](CO)(O[C@H]2O[C@H](CO)[C@@H](O)[C@H](O)[C@H]2O)[C@@H](O)[C@@H]1O [Sucrose]
ITC incremental titration [1]: all had not hydrolytic activity on sucrose, showed their bindings to sucrose were exotherm
pulldown on amylose magnetic beads with GC-TOF MS; ITC titration [2]: OsNIN8m bound more sucrose than OsNIN8 did
ITC incremental titration [3]: all had not hydrolytic activity on sucrose, showed their bindings to sucrose were exotherm
ITC incremental titration [4]: all had not hydrolytic activity on sucrose, showed their bindings to sucrose were exotherm

B1: OsNIN8 (MBP-OsNIN8), neutral invertase 8 (Oryza sativa Japonica Group) (protein)
chain: T1 sequence (Q69T31 1-562 E501A) with A501E
notes: N-terminal MBP fusion (pETMALc-H), tag kept, expressed in E. coli BL21(DE3), amylose resin purified
Km (purified protein): 2718 ± 347 µM
